From patent publication US9127003B2, “2-(azaindol-2-yl)benzimidazoles as PAD4 inhibitors” (Glaxo Group Limited, priority 2012, dated 2015)
Where “and” joins values, the source holds several entries; their conditions need not be identical. Equal values may be shown once. Where a name gives a salt, the structure may show the parent alone.

How the values were obtained:
[1] = molecular target: T1, Recombinant human PAD2 (residues 1-665) (Homo sapiens, UniProt Q9Y2J8); assay: PAD2 enzyme assay (NH3 release, BAEE substrate, fluorescence); format: biochemical; details: PAD2 enzyme assay above or similar assays; read-out: mean pIC50 (converted)
T1 construct: Recombinant human PAD2 (residues 1-665); 6His-FLAG (N); made in house; host or cells: baculovirus-infected Sf9 insect cells
T1 sequence (Q9Y2J8 whole entry, the tested form may be a part): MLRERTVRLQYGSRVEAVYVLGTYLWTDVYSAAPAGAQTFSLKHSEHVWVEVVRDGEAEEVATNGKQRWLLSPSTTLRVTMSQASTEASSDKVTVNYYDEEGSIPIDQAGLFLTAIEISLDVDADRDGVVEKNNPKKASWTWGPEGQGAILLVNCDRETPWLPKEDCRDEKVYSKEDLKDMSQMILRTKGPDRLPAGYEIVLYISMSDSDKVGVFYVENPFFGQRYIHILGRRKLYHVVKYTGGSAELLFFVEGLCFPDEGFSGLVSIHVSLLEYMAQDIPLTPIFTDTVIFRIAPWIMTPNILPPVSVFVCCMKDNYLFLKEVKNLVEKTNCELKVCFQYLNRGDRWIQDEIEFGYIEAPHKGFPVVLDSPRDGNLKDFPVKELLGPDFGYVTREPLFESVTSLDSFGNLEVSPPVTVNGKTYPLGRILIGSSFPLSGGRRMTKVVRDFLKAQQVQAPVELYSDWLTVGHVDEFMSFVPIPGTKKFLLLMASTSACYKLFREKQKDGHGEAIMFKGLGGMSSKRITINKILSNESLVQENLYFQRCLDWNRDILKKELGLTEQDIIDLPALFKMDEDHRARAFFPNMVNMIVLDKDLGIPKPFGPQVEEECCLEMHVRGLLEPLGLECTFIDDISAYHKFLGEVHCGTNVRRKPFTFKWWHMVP
Procedure: Recombinant human PAD2 (residues 1-665) was expressed in baculovirus-infected Sf9 insect cells as an N-terminal 6His-FLAG-tagged fusion protein. Activity of the final product was determined using a FLINT NH3 release assay.
8 μl of PAD2 enzyme diluted to an assay concentration of 30 nM in assay buffer (100 mM HEPES, 50 mM NaCl, 2 mM DTT, 7.5% glycerol and 1.5 mM CHAPS pH 8), and added to wells containing 0.1 μl of various concentrations of compound or DMSO vehicle (0.8% final) in a Greiner high volume 384 well black plate. Following 30 mins pre-incubation at room temperature, the reaction was initiated by the addition of 4 μl of substrate buffer containing 180 uM N-a-benzoyl-L-arginine ethyl ester (BAEE), 100 mM HEPES, 50 mM NaCl, 240 uM CaCl2 (2H2O) and 2 mM DTT, pH 8.0. The reaction was stopped after 90 mins with the addition of 38 μl stop/detection buffer containing 50 mM EDTA, 2.6 mM phthalaldehyde and 2.6 mM DTT. Assay incubated at room temperature for 90 mins before measuring fluorescent signal (λex 405/λem 460) on an Envision plate reader (Perkin Elmer Life Sciences, Waltham, Mass., USA)

[2] = molecular target: T2, Recombinant human PAD4 (residues 1-663) (Homo sapiens, UniProt Q9UM07); assay: PAD4 enzyme assay (NH3 release, BAEE substrate, fluorescence); format: biochemical; details: PAD4 enzyme assay above (Conditions A or B) or similar assays; read-out: mean pIC50 (converted)
T2 construct: Recombinant human PAD4 (residues 1-663); GST (N, cleaved yes); made in house; host or cells: E. coli
T2 sequence (Q9UM07 whole entry, the tested form may be a part): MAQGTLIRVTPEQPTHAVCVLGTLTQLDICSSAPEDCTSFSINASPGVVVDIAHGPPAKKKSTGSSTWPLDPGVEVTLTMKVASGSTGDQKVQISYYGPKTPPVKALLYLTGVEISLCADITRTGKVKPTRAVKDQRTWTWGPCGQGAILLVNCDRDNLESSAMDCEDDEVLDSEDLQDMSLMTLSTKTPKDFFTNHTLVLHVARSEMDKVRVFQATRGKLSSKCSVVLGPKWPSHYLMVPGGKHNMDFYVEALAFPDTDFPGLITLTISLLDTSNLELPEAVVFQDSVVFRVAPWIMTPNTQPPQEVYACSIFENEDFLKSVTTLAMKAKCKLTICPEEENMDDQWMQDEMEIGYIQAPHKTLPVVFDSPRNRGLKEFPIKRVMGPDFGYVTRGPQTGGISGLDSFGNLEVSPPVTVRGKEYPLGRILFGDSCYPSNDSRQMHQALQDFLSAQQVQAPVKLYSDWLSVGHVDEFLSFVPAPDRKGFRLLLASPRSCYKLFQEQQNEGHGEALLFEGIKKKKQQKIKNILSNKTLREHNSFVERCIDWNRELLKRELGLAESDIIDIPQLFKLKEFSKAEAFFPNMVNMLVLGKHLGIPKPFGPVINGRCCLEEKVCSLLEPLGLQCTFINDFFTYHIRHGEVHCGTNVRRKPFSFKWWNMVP
Procedure: Recombinant human PAD4 (residues 1-663) was expressed in E. coli as an N-terminal GST-tagged fusion protein. During purification of the protein, the GST tag was removed by cleavage with PreScission Protease (GE Healthcare). Activity of the final product was determined using a FLINT NH3 release assay.
(§1) 8 μl of PAD4 enzyme diluted to an assay concentration of 75 nm in assay buffer (a).: (100 mM HEPES, 50 mM NaCl, 2 mM DTT and 0.6 mg/mIBSA pH 8), or in assay buffer (b).: (100 mM HEPES, 50 mM NaCl, 2 mM DTT, 7.5% glycerol and 1.5 mM CHAPS pH 8), and added to wells containing 0.1 μl of various concentrations of compound or DMSO vehicle (0.8% final) in a Greiner high volume 384 well black plate. Following 30 mins pre-incubation at room temperature, the reaction was initiated by the addition of 4 μl of substrate buffer containing 3 mM N-a-benzoyl-L-arginine ethyl ester (BAEE), 100 mM HEPES, 50 mM NaCl, 600 uM CaCl2 (2H2O) and 2 mM DTT, pH 8.0. The reaction was stopped after 100 mins with the addition of 38 μl stop/detection buffer containing 50 mM EDTA, 2.6 mM phthalaldehyde and 2.6 mM DTT. Assay incubated at room temperature for 90 mins before measuring fluorescent signal (λex 413/λem 476) on an Envision plate reader (Perkin Elmer Life Sciences, Waltham, Mass., USA)
as §1, with “of 30 nM” for “of 75 nm”, “buffer” for “buffer (a).:”, “mg/mIBSA” for “mg/mIBSA pH 8), or in assay buffer (b).: (100 mM HEPES, 50 mM NaCl, 2 mM DTT, 7.5% glycerol and 1.5 mM CHAPS”, “after 60” for “after 100”, “(λex 405/λem 460)” for “(λex 413/λem 476)”

Row | IC50 [1] | IC50 [2] [µM] | SMILES
1 | 63.1 to 79.4 µM | 0.0316 to 10 | COc1cc(C(=O)N2CCC[C@@H](N)C2)cc2nc(-c3cc4cccnc4n3CC(C)C)n(C)c12 [Example 22, (R)-(3-Aminopiperidin-1-yl)(2-(1-isobutyl-1H-pyrrolo[2,3-b]pyridin-2-yl)-7-methoxy-1-methyl-1H-benzo[d]imidazol-5-yl)methanone, hydrochloride]
2 |  | 0.0316 to 10 | COc1cc(C(=O)N2C[C@@H](N)CC[C@H]2C)cc2nc(-c3cc4cccnc4n3CC3CC3)n(C)c12 (single isomer, unassigned) [Example 23, ((cis)-5-Amino-2-methylpiperidin-1-yl)(2-(1-(cyclopropylmethyl)-1H-pyrrolo[2,3-b]pyridin-2-yl)-7-methoxy-1-methyl-1H-benzo[d]imidazol-5-yl)methanone, hydrochloride]
3 | 63.1 to 79.4 µM | 0.0316 to 10 | COc1cc(C(=O)N2CCC[C@@H](N)C2)cc2nc(-c3cc4cccnc4n3CC(C)(C)C)n(C)c12 [Example 16, (R)-(3-Aminopiperidin-1-yl)(7-methoxy-1-methyl-2-(1-neopentyl-1H-pyrrolo[2,3-b]pyridin-2-yl)-1H-benzo[d]imidazol-5-yl)methanone]
4 |  | 0.0316 to 10 | CCn1c(-c2nc3cc(C(=O)N4CCC[C@@H](N)C4)cc(OC)c3n2C)cc2cccnc21 [Example 9A, (R)-(3-Aminopiperidin-1-yl)(2-(1-ethyl-1H-pyrrolo[2,3-b]pyridin-2-yl)-7-methoxy-1-methyl-1H-benzo[d]imidazol-5-yl)methanone]
5 |  | 0.0316 to 10 | COc1cc(C(=O)N2CCC[C@@H](N)C2)cc2nc(-c3cc4cccnc4n3CC(C)(C)OC)n(C)c12 [Example 21, (R)-(3-Aminopiperidin-1-yl)(7-methoxy-2-(1-(2-methoxy-2-methylpropyl)-1H-pyrrolo[2,3-b]pyridin-2-yl)-1-methyl-1H-benzo[d]imidazol-5-yl)methanone]
6 |  | 0.0316 to 10 | CCn1c(-c2nc3cc(C(=O)N4CCCC(N)C4)ccc3n2C)cc2cnccc21 (centres unmarked) [Example 1, 1-{[2-(1-Ethyl-1H-pyrrolo[3,2-c]pyridin-2-yl)-1-methyl-1H-benzimidazol-5-yl]carbonyl}-3-piperidinamine]
7 | 63.1 to 79.4 µM |  | CCn1c(-c2nc3cc(C(=O)N4CCC[C@@H](N)C4)ccc3n2C)cc2cccnc21 [Example 2B, (R)-(3-Aminopiperidin-1-yl)(2-(1-ethyl-1H-pyrrolo[2,3-b]pyridin-2-yl)-1-methyl-1H-benzo[d]imidazol-5-ylmethanone hydrochloride]
8 |  | 0.0316 to 10 | CCn1c(-c2nc3cc(C(=O)N4CCC[C@@H](N)C4)cc(OC)c3n2CC(C)C)cc2cccnc21 [Example 20, (R)-(3-Aminopiperidin-1-yl)(2-(1-ethyl-1H-pyrrolo[2,3-b]pyridin-2-yl)-1-isobutyl-7-methoxy-1H-benzo[d]imidazol-5-yl)methanone, hydrochloride]
9 |  | 0.0316 to 10 | CCn1c(-c2nc3cc(C(=O)N4CCC[C@@H](N)C4)ccc3n2C)cc2cccnc21 [Example 2A, (R)-(3-Aminopiperidin-1-yl)(2-(1-ethyl-1H-pyrrolo[2,3-b]pyridin-2-yl)-1-methyl-1H-benzo[d]imidazol-5-yl)methanone]
10 |  | 0.0316 to 10 | COc1cc(C(=O)N2CCC[C@@H](N)C2)cc2nc(-c3cc4cccnc4n3CC(F)(F)F)n(C)c12 [Example 11A, (R)-(3-Aminopiperidin-1-yl)(7-methoxy-1-methyl-2-(1-(2,2,2-trifluoroethyl)-1H-pyrrolo[2,3-b]pyridin-2-yl)-1H-benzo[d]imidazol-5-yl)methanone]
11 |  | 0.0316 to 10 | COc1cc(C(=O)N2C[C@H](N)CC[C@@H]2C)cc2nc(-c3cc4cccnc4n3CC3CC3)n(C)c12 (single isomer, unassigned) [Example 24, ((cis)-5-Amino-2-methylpiperidin-1-yl)(2-(1-(cyclopropylmethyl)-1H-pyrrolo[2,3-b]pyridin-2-yl)-7-methoxy-1-methyl-1H-benzo[d]imidazol-5-yl)methanone, hydrochloride]
12 |  | 0.0316 to 10 | Cn1c(-c2cc3cccnc3n2CC(F)(F)F)nc2cc(C(=O)N3CCC[C@@H](N)C3)ccc21 [Example 4A, (R)-(3-Aminopiperidin-1-yl)(1-methyl-2-(1-(2,2,2-trifluoroethyl)-1H-pyrrolo[2,3-b]-pyridin-2-yl)-1H-benzo[d]imidazol-5-yl)methanone]
13 |  | 0.0316 to 10 | CCn1c(-c2nc3cc(C(=O)N4CCC[C@@H](N)C4)ccc3n2C)cc2cc(O)cnc21 [Example 8, 2-(5-{[(3R)-3-Amino-1-piperidinyl]carbonyl}-1-methyl-1H-benzimidazol-2-yl)-1-ethyl-1H-pyrrolo[2,3-b]pyridin-5-ol]
14 | 63.1 to 79.4 µM and > 79.4 µM |  | CCn1c(-c2nc3cc(C(=O)N4CCC[C@@H](N)C4)cc(OC)c3n2C)cc2cccnc21 [Example 9B, (R)-(3-Aminopiperidin-1-yl)(2-(1-ethyl-1H-pyrrolo[2,3-b]pyridin-2-yl)-7-methoxy-1-methyl-1H-benzo[d]imidazol-5-yl)methanone, hydrochloride]
15 |  | 0.0316 to 10 | CCn1c(-c2nc3cc(C(=O)N4CCC[C@@H](N)C4)ccc3n2C)cc2cc(OC)ncc21 [Example 7, (R)-(3-Aminopiperidin-1-yl)(2-(1-ethyl-5-methoxy-1H-pyrrolo[2,3-c]pyridin-2-yl)-1-methyl-1H-benzo[d]imidazol-5-yl)methanone]
16 |  | 0.0316 to 10 | CCn1c(-c2nc3cc(C(=O)N4CCC[C@@H](N)C4)ccc3n2C)cc2cc(OC)cnc21 [Example 6, (R)-(3-Aminopiperidin-1-yl)(2-(1-ethyl-5-methoxy-1H-pyrrolo[2,3-b]pyridin-2-yl)-1-methyl-1H-benzo[d]imidazol-5-yl)methanone]
17 |  | 0.0316 to 10 | CCC(C)Cn1c(-c2nc3cc(C(=O)N4CCC[C@@H](N)C4)cc(OC)c3n2C)cc2cccnc21 (stereo partly drawn) [Example 17, ((R)-3-Aminopiperidin-1-yl)(7-methoxy-1-methyl-2-(1-(2-methylbutyl)-1H-pyrrolo[2,3-b]pyridin-2-yl)-1H-benzo[d]imidazol-5-yl)methanone]
18 |  | 0.0316 to 10 | CCn1c(-c2nc3cc(C(=O)N4CCC[C@@H](N)C4)cc(OC)c3n2CCOC)cc2cccnc21 [Example 18, (R)-(3-Aminopiperidin-1-yl)(2-(1-ethyl-1H-pyrrolo[2,34]pyridin-2-yl)-7-methoxy-1-(2-methoxyethyl)-1H-benzo[d]imidazol-5-yl)methanone, hydrochloride]
19 |  | 0.0316 to 10 | CCn1c(-c2nc3cc(C(=O)N4CCCC(N)C4)ccc3n2C)cc2cccnc21 (centres unmarked) [Example 12, (3-Aminopiperidin-1-yl)(2-(1-ethyl-1H-pyrrolo[2,3-b]pyridin-2-yl)-1-methyl-1H-benzo[d]imidazol-5-yl)methanone]
20 |  | 0.0316 to 10 | CCn1c(-c2nc3cc(C(=O)N4CCC[C@@H](N)C4)ccc3n2C)cc2ccncc21 [Example 3, (R)-(3-Aminopiperidin-1-yl)(2-(1-ethyl-1H-pyrrolo[2,3-c]pyridin-2-yl)-1-methyl-1H-benzo[d]imidazol-5-yl)methanone]
21 |  | 0.0316 to 10 | CCn1c(-c2nc3cc(C(=O)N4CCC[C@@H](N)C4)cc(OC(F)(F)F)c3n2C)cc2cccnc21 [Example 15, (R)-(3-Aminopiperidin-1-yl)(2-(1-ethyl-1H-pyrrolo[2,3-b]pyridin-2-yl)-1-methyl-7-(trifluoromethoxy)-1H-benzo[d]imidazol-5-yl)methanone]
